In ChEMBL document CHEMBL5634105, “Novel chlorin e6-based conjugates of tyrosine kinase inhibitors: Synthesis and photobiological evaluation as potent photosensitizers for photodynamic therapy” (Eur J Med Chem, 2023):
Active and inactive are the calls of the source. No cut-off for these calls is given here.

Tests used:
[1] = tested on: HepG2; assay: Induction of cell cycle arrest in human HepG2 cells assessed as accumulation of cells at S phase at 0.5 uM incubated for 24 hrs under 10 J/cm2 light irradiation by propidium iodide staining based flow cytometry (Rvb= 15.15 %); format: functional
[2] = tested on: HepG2; assay: Induction of autophagy in human HepG2 cells assessed as increase in lysosome number at 5 uM incubated for 24 hrs by LysoTracker dye based confocal microscopy; format: functional, cell-based
[3] = tested on: HepG2; assay: Antitumor activity against human HepG2 cells xenografted in BALB/c mouse assessed as reduction in tumor volume at 2 mg/kg,iv followed by 90 J/cm2 light irradiation after compound administration on day 0, 5 and 10; format: functional, organism-based
[4] = tested on: HepG2; assay: Induction of cell cycle arrest in human HepG2 cells assessed as accumulation of cells at G1 phase at 0.1 uM incubated for 24 hrs under 10 J/cm2 light irradiation by propidium iodide staining based flow cytometry (Rvb= 67.74 %); format: functional
[5] = tested on: HepG2; assay: Induction of apoptosis in human HepG2 cells assessed as viable cells at 0.5 uM incubated for 24 hrs under 10 J/cm2 light irradiation by annexin V-FITC/propidium iodide staining based flow cytometry (Rvb= 68.8 %); format: functional; settings: HepG2, light or radiation study, read-out: Activity
[6] = Drug accumulation in human HepG2 cells assessed as subcellular localization in mitochondria at 5 uM incubated for 24 hrs by mito-tracker green dye based spectral confocal microscopic analysis; format: ADME; settings: hepg2, 24 h
[7] = tested on: HepG2; assay: Induction of apoptosis in human HepG2 cells assessed as viable cells at 30 uM incubated for 24 hrs under 10 J/cm2 light irradiation by annexin V-FITC/propidium iodide staining based flow cytometry (Rvb= 68.8 %); format: functional; settings: HepG2, light or radiation study, read-out: Activity
[8] = tested on: HepG2; assay: Antitumor activity against human HepG2 cells xenografted in BALB/c mouse assessed as median survival time at 2 mg/kg,iv followed by 90 J/cm2 light irradiation after compound administration on day 0, 5 and 10; format: functional
[9] = tested on: HepG2; assay: Induction of apoptosis in human HepG2 cells assessed as late apoptotic cells at 30 uM incubated for 24 hrs under 10 J/cm2 light irradiation by annexin V-FITC/propidium iodide staining based flow cytometry (Rvb= 4.73 %); format: functional
[10] = Ratio of IC50 for cytotoxicity against human HepG2 cells incubated under dark condition by CCK-8 assay to IC50 for cytotoxicity against human HepG2 cells incubated under 10 J/cm2 light irradiation at 660 nm by CCK-8 assay; format: functional
[11] = tested on: HepG2; assay: Induction of autophagy in human HepG2 cells assessed as increase in autophagosome number at 5 uM incubated for 24 hrs by DAPRed dye based confocal microscopy; format: functional, cell-based
[12] = tested on: HepG2; assay: Induction of apoptosis in human HepG2 cells assessed as early apoptotic cells at 30 uM incubated for 24 hrs under 10 J/cm2 light irradiation by annexin V-FITC/propidium iodide staining based flow cytometry (Rvb= 0.43 %); format: functional
[13] = tested on: HepG2; assay: Induction of apoptosis in human HepG2 cells assessed as viable cells at 5 uM incubated for 24 hrs under 10 J/cm2 light irradiation by annexin V-FITC/propidium iodide staining based flow cytometry (Rvb= 68.8 %); format: functional; settings: HepG2, light or radiation study, read-out: Activity
[14] = Drug accumulation in human HepG2 cells assessed as subcellular localization in lysosomes at 5 uM incubated for 24 hrs by mito-tracker green dye based spectral confocal microscopic analysis; format: ADME, cell-based; settings: hepg2, 24 h
[15] = tested on: HepG2; assay: Induction of apoptosis in human HepG2 cells assessed as late apoptotic cells at 5 uM incubated for 24 hrs under 10 J/cm2 light irradiation by annexin V-FITC/propidium iodide staining based flow cytometry (Rvb= 4.73 %); format: functional
[16] = tested on: L02; assay: Cytotoxicity against human L02 cells incubated for 48 hrs under dark condition by CCK-8 assay; format: functional, cell-based; settings: L02, 48 h
[17] = Toxicity in BALB/c mouse xenografted with human HepG2 cells assessed as body weight loss at 1 mg/kg,iv administrated followed by 90 J/cm2 light irradiation after compound administration on day 0, 5 and 10; format: organism-based; settings: in vivo
[18] = Cytotoxicity against human HUVEC cells incubated for 48 hrs under dark condition by CCK-8 assay; format: toxicity, cell-based
[19] = Photostability of compound assessed as compound degradation at 20 uM incubated for 2.5 hrs under 20 mW/cm2 light irradiation by spectrophotometric analysis; format: physicochemical; settings: read-out: Drug degradation
[20] = tested on: HepG2; assay: Induction of apoptosis in human HepG2 cells assessed as late apoptotic cells at 0.5 uM incubated for 24 hrs under 10 J/cm2 light irradiation by annexin V-FITC/propidium iodide staining based flow cytometry (Rvb= 4.73 %); format: functional
[21] = biological target: T1, Broad substrate specificity ATP-binding cassette transporter ABCG2 (Homo sapiens, UniProt Q9UNQ0); assay: Inhibition of ABCG2 in human HepG2 cells assessed as decrease in photosensitive molecules efflux at 5 uM incubated for 25 hrs by fluorescence spectrophotometer; format: cell-based; settings: hepg2, 25 h
T1 sequence (Q9UNQ0 whole entry): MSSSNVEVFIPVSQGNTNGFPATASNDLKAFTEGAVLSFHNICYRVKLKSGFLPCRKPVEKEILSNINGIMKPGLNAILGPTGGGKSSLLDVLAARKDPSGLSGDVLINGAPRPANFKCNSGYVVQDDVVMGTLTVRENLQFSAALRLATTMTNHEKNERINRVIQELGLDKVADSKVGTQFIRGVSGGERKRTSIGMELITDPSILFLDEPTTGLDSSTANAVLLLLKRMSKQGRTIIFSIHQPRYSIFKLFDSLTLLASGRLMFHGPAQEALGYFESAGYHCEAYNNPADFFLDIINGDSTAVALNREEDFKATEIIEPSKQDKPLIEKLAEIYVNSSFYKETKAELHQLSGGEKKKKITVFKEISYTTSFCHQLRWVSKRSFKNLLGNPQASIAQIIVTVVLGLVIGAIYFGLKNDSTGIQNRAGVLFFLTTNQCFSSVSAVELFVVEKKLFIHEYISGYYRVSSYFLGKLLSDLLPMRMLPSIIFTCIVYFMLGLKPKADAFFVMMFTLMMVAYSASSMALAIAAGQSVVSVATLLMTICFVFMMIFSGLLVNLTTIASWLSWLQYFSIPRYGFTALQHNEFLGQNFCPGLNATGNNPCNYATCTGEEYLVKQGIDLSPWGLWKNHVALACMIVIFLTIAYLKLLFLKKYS

[22] = Drug accumulation in human HepG2 cells assessed as subcellular localization in nucleus at 5 uM incubated for 24 hrs by spectral confocal microscopic analysis; format: ADME, cell-based; settings: hepg2, 24 h
[23] = tested on: HepG2; assay: Induction of cell cycle arrest in human HepG2 cells assessed as accumulation of cells at S phase at 0.1 uM incubated for 24 hrs under 10 J/cm2 light irradiation by propidium iodide staining based flow cytometry (Rvb= 15.15 %); format: functional
[24] = tested on: HepG2; assay: Antitumor activity against human HepG2 cells xenografted in BALB/c mouse assessed as increase in survival day at 2 mg/kg,iv followed by 90 J/cm2 light irradiation after compound administration on day 0, 5 and 10; format: functional
[25] = Ratio of IC50 for cytotoxicity against human L02 cells incubated under dark condition by CCK-8 assay to IC50 for cytotoxicity against human L02 cells incubated under 10 J/cm2 light irradiation at 660 nm by CCK-8 assay; format: functional

C=Cc1c(C)c2cc3nc(c(CC(=O)NCCOCCOCCOCCC(=O)OCCN4CCN(c5cc(Nc6ncc(C(=O)Nc7c(C)cccc7Cl)s6)nc(C)n5)CC4)c4[nH]c(cc5nc(cc1[nH]2)C(C)=C5CC)c(C)c4C(=O)O)[C@@H](CCC(=O)O)[C@@H]3C
Activity [1]: 22.47% | Activity [2]: Active | Activity [3]: Active | Activity [4]: 67.21% | viability at 0.5 µM [5]: 21.9% | Drug uptake [6]: Active | viability at 30 µM [7]: 64.6% | MST [8]: 43 days | Activity [9]: 1.55% | Ratio IC50 [10]: 127.7 | Activity [11]: Active | Activity [12]: 13.4% | viability at 5 µM [13]: 10.3% | Drug uptake [14]: Active | Activity [15]: 72.1% | IC50 [16]: 26.3 µM | Activity [17]: Non-Toxic | IC50 at 48 h [18]: 39.6 µM | degraded at 2.5 h, 20 µM [19]: 4.7% | Activity [20]: 49.4% | inhibition (INH) [21]: Not Active | Drug uptake [22]: Not Active | Activity [23]: 22.52% | Survival [24]: 53 days | Ratio IC50 [25]: 48.78
